Patent US6737383B1, “Herbicidal oxadiazolidines” (priority 1999, dated 2004)

Legend:
bedstraw = experiment: Test B pre/postemergence bedstraw; assay type: in vivo, Galium aparine; details: Preemergence; for Bedstraw plant response rating: scale of 0 to 10 where 0 is no effect and 10 is complete control
How it was run: (§1)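 Herbicidal effect was estimated by eye on a ten-point control scale after plants spent twelve to sixteen days in a greenhouse following soil or foliar treatment. Foliar sprays targeted plants at one to four leaves; all doses were formulated in a non-phytotoxic solvent with surfactant.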

blackgrass = experiment: Test B pre/postemergence blackgrass; assay type: in vivo, Alopecurus myosuroides
How it was run: as §1

surinam grass = experiment: Test B pre/postemergence surinam grass; assay type: in vivo, Brachiaria decumbens
How it was run: as §1

cocklebur = experiment: Test B pre/postemergence cocklebur; assay type: in vivo, Xanthium strumarium
How it was run: as §1

corn = experiment: Test B pre/postemergence corn; assay type: in vivo, Zea mays
How it was run: as §1

crabgrass = experiment: Test B pre/postemergence crabgrass; assay type: in vivo, Digitaria sanguinalis
How it was run: as §1

giant foxtail = experiment: Test B pre/postemergence giant foxtail; assay type: in vivo, Setaria faberii
How it was run: as §1

morningglory = experiment: Test B pre/postemergence morningglory; assay type: in vivo, Ipomoea hederacea
How it was run: as §1

pigweed = experiment: Test B pre/postemergence pigweed; assay type: in vivo, Amaranthus retroflexus
How it was run: as §1

rape = experiment: Test B pre/postemergence rape; assay type: in vivo, Brassica napus
How it was run: as §1

soybean = experiment: Test B pre/postemergence soybean; assay type: in vivo, Glycine max
How it was run: as §1

sugar beet = experiment: Test B pre/postemergence sugar beet; assay type: in vivo, Beta vulgaris
How it was run: as §1

velvetleaf = experiment: Test B pre/postemergence velvetleaf; assay type: in vivo, Abutilon theophrasti
How it was run: as §1

wheat = experiment: Test B pre/postemergence wheat; assay type: in vivo, Triticum aestivum
How it was run: as §1

wild oat = experiment: Test B pre/postemergence wild oat; assay type: in vivo, Avena fatua
How it was run: as §1

purple nutsedge = experiment: Test B pre/postemergence purple nutsedge; assay type: in vivo, Cyperus rotundus
How it was run: as §1

rice = experiment: Test B flood test rice; assay type: in vivo, Oryza sativa
How it was run: (§2)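 Read-out is a visual response score from 0 (no effect) to 10 (complete control), assigned by comparison with untreated controls. Treatment was applied at the 2-leaf stage, and plants stayed in the greenhouse for twelve to sixteen days before scoring.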

smallflower flatsedge = experiment: Test B flood test smallflower flatsedge; assay type: in vivo, Cyperus difformis
How it was run: as §2

duck salad = experiment: Test B flood test duck salad; assay type: in vivo, Heteranthera limosa
How it was run: as §2

bamyardgrass = experiment: Test B flood test barnyardgrass; assay type: in vivo, Echinochloa crus-galli
How it was run: as §2

[1] = Postemergence, Rate 125 g/ha, scale of 0 to 10 where 0 is no effect and 10 is complete control
[2] = Postemergence, Rate 250 g/ha, scale of 0 to 10, 0 is no effect, 10 is complete control
[3] = Postemergence, Rate 500 g/ha, scale of 0 to 10 where 0 is no effect and 10 is complete control
[4] = Postemergence, Rate 1000 g/ha, scale 0 to 10 (0 no effect, 10 complete control)
[5] = Preemergence, Rate 125 g/ha, scale of 0 to 10 where 0 is no effect and 10 is complete control
[6] = Preemergence, Rate 500 g/ha, scale of 0 to 10 where 0 is no effect and 10 is complete control
[7] = Rate 1000 g/ha, Preemergence, scale 0 to 10 (0 no effect, 10 complete control)
[8] = Pre-emergence, Rate 1000 g/ha, scale 0 to 10 (0 no effect, 10 complete control)
[9] = Rate 125 g/ha, under heading Pre-emergence, flood test species, visual evaluation after twelve to sixteen days
[10] = Rate 250 g/ha, Pre-emergence (flood test species), scale 0 to 10, 0 is no effect, 10 is complete control
[11] = Rate 500 g/ha, Pre-emergence section of Table B, 0 to 10 scale (0 no effect, 10 complete control)

CCOP(=O)(Cn1c(=O)on(C(=O)N(c2ccc(Cl)cc2)C(C)C)c1=O)OCC [Compound 599]
10: Plant response rating, Giant foxtail (giant foxtail; [6]) | Plant response rating, Giant foxtail (giant foxtail; [7])
4: Giant foxtail plant response rating (giant foxtail; [4]) | Plant response rating, Redroot pigweed (pigweed; [7]) | Soybean plant response rating (soybean; [4])
9: Giant foxtail plant response rating (giant foxtail; [5])
3: Blackgrass plant response rating (0 to 10 scale) (blackgrass; Preemergence, Rate 250 g/ha) | B. signalgrass plant response rating (surinam grass; [6]) | Plant response rating, B. signalgrass (surinam grass; [7]) | Plant response rating, Cocklebur (cocklebur; [7]) | Crabgrass plant response rating (crabgrass; [5]) | Plant response rating, Rape (rape; [7]) | Velvetleaf plant response rating (velvetleaf; [4])
6: Blackgrass plant response rating (blackgrass; [4]) | Blackgrass plant response rating (blackgrass; [6]) | Plant response rating, Morningglory (morningglory; [3]) | Morningglory plant response rating (morningglory; [4])
0: Bedstraw plant response rating (bedstraw; Rate 125 g/ha) | Bedstraw plant response rating (0 to 10 scale) (bedstraw; Rate 250 g/ha) | Bedstraw plant response rating (bedstraw; Rate 500 g/ha) | Plant response rating, Blackgrass (blackgrass; [1]) | Blackgrass plant response rating (blackgrass; [2]) | Plant response rating, Blackgrass (blackgrass; [3]) | Blackgrass plant response rating (blackgrass; [5]) | Plant response rating, B. signalgrass (surinam grass; [1]) | B. signalgrass plant response rating (surinam grass; [2]) | Plant response rating, B. signalgrass (surinam grass; [3]) | B. signalgrass plant response rating (surinam grass; [4]) | Plant response rating, Cocklebur (cocklebur; [1]) | Cocklebur plant response rating (cocklebur; [2]) | Plant response rating, Cocklebur (cocklebur; [3]) | Cocklebur plant response rating (cocklebur; [4]) | Cocklebur plant response rating (cocklebur; [5]) | Cocklebur plant response rating (0 to 10 scale) (cocklebur; Preemergence, Rate 250 g/ha) | Plant response rating, Cocklebur (cocklebur; [6]) | Plant response rating, Corn (corn; [1]) | Corn plant response rating (corn; [2]) | Plant response rating, Corn (corn; [3]) | Corn plant response rating (corn; [4]) | Corn plant response rating (corn; [5]) | Corn plant response rating (0 to 10 scale) (corn; Preemergence, Rate 250 g/ha) | Plant response rating, Corn (corn; [6]) | Plant response rating, Corn (corn; [7]) | Plant response rating, Crabgrass (crabgrass; [1]) | Crabgrass plant response rating (crabgrass; [2]) | Plant response rating, Crabgrass (crabgrass; [3]) | Crabgrass plant response rating (crabgrass; [4]) | Plant response rating, Giant foxtail (giant foxtail; [1]) | Giant foxtail plant response rating (giant foxtail; [2]) | Plant response rating, Giant foxtail (giant foxtail; [3]) | Morningglory plant response rating (morningglory; [5]) | Plant response rating, Morningglory (morningglory; [6]) | Plant response rating, Morningglory (morningglory; [7]) | Plant response rating, Redroot pigweed (pigweed; [1]) | Redroot pigweed plant response rating (pigweed; [2]) | Plant response rating, Redroot pigweed (pigweed; [3]) | Redroot pigweed plant response rating (pigweed; [4]) | Redroot pigweed plant response rating (pigweed; [5]) | Plant response rating, Redroot pigweed (pigweed; [6]) | Plant response rating, Rape (rape; [1]) | Rape plant response rating (rape; [2]) | Plant response rating, Rape (rape; [3]) | Rape plant response rating (rape; [4]) | Rape plant response rating (rape; [5]) | Plant response rating, Rape (rape; [6]) | Soybean plant response rating (soybean; [5]) | Plant response rating, Soybean (soybean; [6]) | Plant response rating, Soybean (soybean; [7]) | Plant response rating, Sugarbeets (sugar beet; [1]) | Sugarbeets plant response rating (sugar beet; [2]) | Plant response rating, Sugarbeets (sugar beet; [3]) | Sugarbeets plant response rating (sugar beet; [4]) | Sugarbeets plant response rating (sugar beet; [5]) | Plant response rating, Velvetleaf (velvetleaf; [1]) | Velvetleaf plant response rating (velvetleaf; [2]) | Plant response rating, Velvetleaf (velvetleaf; [3]) | Velvetleaf plant response rating (velvetleaf; [5]) | Plant response rating, Velvetleaf (velvetleaf; [6]) | Plant response rating, Velvetleaf (velvetleaf; [7]) | Plant response rating, Wheat (wheat; [1]) | Wheat plant response rating (wheat; [2]) | Plant response rating, Wheat (wheat; [3]) | Wheat plant response rating (wheat; [4]) | Wheat plant response rating (wheat; [5]) | Plant response rating, Wheat (wheat; [6]) | Plant response rating, Wheat (wheat; [7]) | Plant response rating, Wild oats (wild oat; [1]) | Wild oats plant response rating (wild oat; [2]) | Plant response rating, Wild oats (wild oat; [3]) | Wild oats plant response rating (wild oat; [4]) | Wild oats plant response rating (wild oat; [5]) | Plant response rating, Wild oats (wild oat; [6]) | Plant response rating, Wild oats (wild oat; [7]) | Plant response rating, Nutsedge (purple nutsedge; [3]) | Nutsedge plant response rating (purple nutsedge; [4]) | Nutsedge plant response rating (purple nutsedge; [5]) | Plant response rating, Nutsedge (purple nutsedge; [6]) | Plant response rating, Nutsedge (purple nutsedge; [7]) | Rice plant response rating (rice; [8]) | Rice plant response rating (0 to 10 scale, 0 is no effect, 10 is complete control) (rice; [9]) | Rice plant response rating (rice; [10]) | Rice plant response rating (rice; [11]) | S. Flatsedge plant response rating (smallflower flatsedge; [8]) | S. Flatsedge plant response rating (0 to 10 scale, 0 is no effect, 10 is complete control) (smallflower flatsedge; [9]) | S. Flatsedge plant response rating (smallflower flatsedge; [10]) | S. Flatsedge plant response rating (smallflower flatsedge; [11]) | Ducksalad plant response rating (duck salad; [8]) | Ducksalad plant response rating (0 to 10 scale, 0 is no effect, 10 is complete control) (duck salad; [9]) | Ducksalad plant response rating (duck salad; [10]) | Ducksalad plant response rating (duck salad; [11]) | Barnyardgrass plant response rating (bamyardgrass; [8]) | Barnyardgrass plant response rating (0 to 10 scale, 0 is no effect, 10 is complete control) (bamyardgrass; [9]) | Barnyardgrass plant response rating (bamyardgrass; [10]) | Barnyardgrass plant response rating (bamyardgrass; [11])
2: B. signalgrass plant response rating (surinam grass; [5]) | B. signalgrass plant response rating (0 to 10 scale, 0 is no effect, 10 is complete control) (surinam grass; Preemergence, Rate 250 g/ha) | Plant response rating, Soybean (soybean; [1]) | Soybean plant response rating (soybean; [2]) | Plant response rating, Soybean (soybean; [3]) | Plant response rating, Sugarbeets (sugar beet; [7])
8: Plant response rating, Bedstraw (bedstraw; Rate 1000 g/ha, scale 0 to 10 (0 no effect, 10 complete control)) | Plant response rating, Blackgrass (blackgrass; [7]) | Plant response rating, Crabgrass (crabgrass; [6]) | Plant response rating, Crabgrass (crabgrass; [7])
1: Plant response rating, Morningglory (morningglory; [1]) | Morningglory plant response rating (morningglory; [2])
